Results on one compound are retold here after patent US20120101099A1, “HISTONE DEACETYLASE INHIBITORS” (ANTHEM BIOSCIENCES PRIVATE LIMITED, priority 2009, published 2012).

In general, solubility refers to the concentration that dissolves in the medium under given conditions. For orientation: GI50 means the concentration giving 50% growth inhibition. A word on the IC50: it is the point on the concentration scale where inhibition reaches its midpoint.

One data set concerns P21. In words: p21 induction in HeLa cells (Western Blot). Details: key: represented by the symbol ‘+’ which indicates the relative extent of modulation; ++: represented by the symbol ‘+’ which indicates the relative extent of modulation; +++: represented by the symbol ‘+’ which indicates the relative extent of modulation; ++++: represented by the symbol ‘+’ which indicates the relative extent of modulation. Format: cell-based. Conditions: 24 hrs, 0.03-3.0 μM. The method, then:
HeLa Cells were seeded at a density of 0.5×10^6 Cells/well into 6 well plates and incubated for 24 hrs. Compounds were tested at 5 different concentrations (0.03, 0.1, 0.3, 1.0, 3.0 μM) including corresponding controls. After 24 hrs cells were lysed and the cellular extract was used for measuring P21 induction by Western Blot using monoclonal Anti-p21 clone CP74 antibody (Sigma).

The test system of another data set is acetyl-Histone H3. Put plainly: Histone hyperacetylation in Hela cells (Western Blot). Format: cell-based. The conditions noted are these: 24 hrs, 0.03-3.0 μM. Further details: key: represented by the symbol ‘+’ which indicates the relative extent of modulation; ++: represented by the symbol ‘+’ which indicates the relative extent of modulation; +++: represented by the symbol ‘+’ which indicates the relative extent of modulation; ++++: represented by the symbol ‘+’ which indicates the relative extent of modulation. As to the method:
(§1) HeLa Cells were seeded at a density of 0.4×10^6 Cells/well into 6 well plates and incubated for 24 h The compounds were tested at 5 different concentrations (0.03, 0.1, 0.3, 1.0, 3.0 μM) with corresponding control. After 24 hrs cells were lysed and histone proteins were extracted as per established protocols and the extract was used for measuring H3 and H4 hyperacetylation by Western Blot using Anti-acetyl-Histone H3 and Anti-acetyl-Histone H4 (Millipore, USA) antibodies.
For orientation: In western blotting, separated proteins are transferred to a membrane and probed.

A further data set relates to acetyl-Histone H4. Described as above. It is filed as cell-based. Further details: key: represented by the symbol ‘+’ which indicates the relative extent of modulation; ++: represented by the symbol ‘+’ which indicates the relative extent of modulation; +++: represented by the symbol ‘+’ which indicates the relative extent of modulation; ++++: represented by the symbol ‘+’ which indicates the relative extent of modulation. Conditions: 24 hrs, 0.03-3.0 μM. The method, then:
as §1

Data set [1] can be described thus: Absolute aqueous solubility. Conditions: 25 °C, thermodynamic from solid; water, about 6 hrs equilibration, 25 deg centigrade, UV. Format: physicochemical. As to the method:
The objective of the study was to determine the absolute solubility of the powder form of the test compounds in water. Brief procedure: The powder form of test compounds was allowed to saturate in an aqueous medium and is equilibrated for about 6 hrs until the compound precipitates. The precipitated solution was centrifuged at 15,000 rpm for 10 mins at 25 deg centigrade and the supernatant solution was analyzed by UV spectrometry. If required the supernatant was diluted further until the absorbance by UV spectroscopy was within the limits of the standard curve obtained with the test compound. λmax was selected from UV spectra having maximum absorbance for that compound.

In the next data set the test system is PC-3. Put plainly: Cell proliferation assay (MTT). It is filed as cell-based. The conditions noted are these: Homo sapiens, PC-3. The essentials:
(§2)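 MTT was added for 3 h, formazan dissolved in DMSO and A570 read. GI50 interpolated from dose-response curves of percentage growth relative to a T0 plate.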

The next data set deals with HT-29. In words: Cell proliferation assay (MTT). Format: cell-based. Conditions: Homo sapiens, HT-29. The method in brief:
as §2

In the next data set the test system is A549. Put plainly: Cell proliferation assay (MTT). It is filed as cell-based. The conditions noted are these: Homo sapiens, A549. The essentials: as §2
The next data set deals with HCT-15. Put plainly: Anti-proliferative activity (GI50). Format: cell-based. Conditions: Homo sapiens, HCT-15; Table 9; Colon; read-out: Anti-proliferative activity (GI50) HCT-15. The method in brief:
as §2

The next data set has as its system A431. Put plainly: Anti-proliferative activity (GI50). Format: cell-based. The conditions noted are these: Homo sapiens, A-431; Table 9; Skin; read-out: Anti-proliferative activity (GI50) A431. The method in brief: as §2
In a further data set the test system is DU-145. In words: Anti-proliferative activity (GI50). It is filed as cell-based. The conditions noted are these: Homo sapiens, DU-145; Table 9; Prostate; read-out: Anti-proliferative activity (GI50) DU-145. The essentials: as §2
Another data set has as its system KHOS. Put plainly: Anti-proliferative activity (GI50). Format: cell-based. Conditions: Table 9; Bone; read-out: Anti-proliferative activity (GI50) KHOS. The method in brief: as §2
Another data set has as its system Ca Ski. In words: Anti-proliferative activity (GI50). Format: cell-based. Conditions: Homo sapiens, Table 9, Cervix, read-out: Anti-proliferative activity (GI50) Ca Ski. The method in brief:
as §2

Another data set addresses T1, CYP 3A4 (Homo sapiens, UniProt P08684).
T1 construct: purchased
In words: Cytochrome-P450 isoforms liability determination. Format: in vitro ADME. The conditions noted are these: fluorescence based kit.

A further data set concerns cleaved PARP. Put plainly: PARP cleavage in HeLa cells (Western Blot). It is filed as cell-based. Details: key: represented by the symbol ‘+’ which indicates the relative extent of modulation; ++: represented by the symbol ‘+’ which indicates the relative extent of modulation; +++: represented by the symbol ‘+’ which indicates the relative extent of modulation; ++++: represented by the symbol ‘+’ which indicates the relative extent of modulation. The conditions noted are these: 24 hrs, 0.03-3.0 μM. As to the method: HeLa Cells were seeded (0.3×10^6 Cells/well) into a 6 well plate and after 24 hrs compounds were added in 5 different concentrations (0.03, 0.1, 0.3, 1.0, 3.0 μM). After 24 hrs cells were lysed and cellular extract was used for assessing apoptotic activity by detection of cleaved PARP by Western Blot using monoclonal Anti-poly(ADP-Ribose) polymerase antibody, Clone C-2-10(Sigma).

Structures can show the parent of a compound that is named as a salt. Where two headings read alike, the source gives them in different places.

T1 sequence (P08684 whole entry): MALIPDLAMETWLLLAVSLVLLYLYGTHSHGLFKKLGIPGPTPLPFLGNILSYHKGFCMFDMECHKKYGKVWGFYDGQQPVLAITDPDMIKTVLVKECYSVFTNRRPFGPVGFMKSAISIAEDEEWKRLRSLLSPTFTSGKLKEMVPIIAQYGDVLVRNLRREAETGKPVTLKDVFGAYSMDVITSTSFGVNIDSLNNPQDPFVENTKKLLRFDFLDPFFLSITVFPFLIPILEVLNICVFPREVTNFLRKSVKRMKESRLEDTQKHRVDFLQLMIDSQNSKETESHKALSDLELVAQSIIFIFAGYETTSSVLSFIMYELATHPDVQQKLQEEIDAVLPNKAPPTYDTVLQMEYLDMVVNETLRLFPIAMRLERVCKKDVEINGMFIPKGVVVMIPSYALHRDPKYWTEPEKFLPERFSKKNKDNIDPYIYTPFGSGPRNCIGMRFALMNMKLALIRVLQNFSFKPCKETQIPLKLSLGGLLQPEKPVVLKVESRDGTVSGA

In the case of `O=C(/C=C/c1cccc(Cn2cc(-c3ccc(CN4CCOCC4)cc3)nn2)c1)NO` [Example 25, N-Hydroxy-3-{3-[4-(4-morpholin-4-ylmethyl-phenyl)-[1,2,3]triazol-1-ylmethyl]-phenyl}-acrylamide hydrochloride], in the data set on P21, the P21 induction result was “++”. Besides, in the data set on acetyl-Histone H3, the “Target modulation: H3 acetylation” value is on record as “++++”. Also, the “Target modulation: H4 acetylation” value in the data set with acetyl-Histone H4 is reported as “++++”. The solubility in data set [1] was determined as 2900 µg/mL. Also, the GI50 in the data set on PC-3 (Table 1, MTT, 48 hours, read-out: Cell growth inhibition (GI50 in μM) PC-3) came to 4 ± 3.9 µM; in the data set on PC-3 (Table 9, Prostate, read-out: Anti-proliferative activity (GI50) PC-3), 1.7 ± 1.02 µM; with HT-29 (Table 1, MTT, 48 hours, read-out: Cell growth inhibition (GI50 in μM) HT-29), 0.2 µM; in the data set with HT-29 (Table 9, Colon, read-out: Anti-proliferative activity (GI50) HT-29) it was 0.4 ± 0.13 µM; in the data set on A549 (Table 1, MTT, 48 hours, read-out: Cell growth inhibition (GI50 in μM) A549) it was 2.5 ± 0.8 µM; in the data set on A549 (Table 9, Lung, read-out: Anti-proliferative activity (GI50) A549) it was 2 ± 1.52 µM. Moreover, the GI50 with HCT-15 is 1700 ± 890 nM; with A431 it was 200 ± 30 nM; with DU-145, 100 ± 30 nM; in the data set on KHOS, 4600 ± 550 nM; in the data set on Ca Ski, 400 ± 280 nM. For the same compound, the midpoint of inhibition on CYP 3A4, the IC50, lay at 12.6 µM. Moreover, in the data set on cleaved PARP, the PARP cleavage entry is given as “+++”.
